In US20210353624A1, “METHOD OF TREATING CANCER WITH TELOTRISAT OR A PRODRUG THEREOF” (TerSera Therapeutics LLC, priority 2020, published 2021):

How the values were obtained:
[1] = test system: normal cell lines: fallopian tube epithelium (FT240), ovarian surface epithelium (OSE22), first trimester placental fibroblasts (FTP); assay: Cell confluence of normal cell lines grown with telotristat ethyl; type: cell-based; details: 0, 5, 15 and 30 μM telotristat ethyl, 24 to 96 hours
Protocol: This example provides experiments assessing the effects of telotristat ethyl on three aggressive cancer cell lines—liposarcoma (94T778), colon cancer (HT-29), and cholangiocarcinoma (TFK-1)—and three “normal” cell lines—fallopian tube epithelium (FT240), ovarian surface epithelium (OSE22), and first trimester placental fibroblasts (FTP).
The cells were grown with 0, 5, 15 and 30 μM telotristat ethyl, plated into four-chambered slides with an initial confluence of at least 30%, and cultured for 24 to 96 hours. At the end of each 24-hour period, cell density was measured with hematoxylin, and the presence of 5-HT was assessed by immunohistochemistry. Experiments were performed in triplicate. Cell confluence was determined, and the 5-HT expression was recorded as an H-score.

[2] = test system: u5-HIAA; assay: Biomarker changes after TE initiation (TELEACE): u5-HIAA; type: in vivo, human; details: n=22
Protocol: (§1) This example provides the effects of telotristat ethyl treatment on selected patient biomarkers (i.e., u5-HIAA; CgA; 5-HT; and NT-proBNP) in the retrospective, single arm study of Example 4.
(§2) The average (SD) duration of documented TE treatment was 12.0 (7.3) months with a median (IQR) of 9.0 (6.8, 15.2) months. In many cases, a patient received a TE dosage of 250 mg three times per day.
The continuous measures of biomarker values pre- and post-TE initiation were described using mean, SD, median, and IQR. The biomarkers were assessed only among patients with complete biomarker assessment results in both pre-TE and post-TE initiation periods. A Wilcoxon signed rank test was used to calculate P-values for the mean change in biomarker value.
(§3) Patients with reported biomarker values below, at, or above normal range in pre-TE and post-TE initiation periods were described using proportions and frequencies. The biomarkers were assessed only among patients with complete biomarker assessment results in both pre-TE and post-TE initiation periods. McNemar's test was used to calculate P-values for the differences in paired proportions of patients with values above the upper limit of normal.
To evaluate the relationship between the change in biomarker values (i.e., u5-HIAA; CgA; 5-HT) and the change in tumor progression between the pre- and post-TE periods, Pearson's correlation coefficient was used to assess the correlation between biomarker assessments and tumor sizes and to derive the associated P-values. The correlations were assessed only among patients with complete biomarker assessment results in both pre-TE and post-TE initiation periods. The relationship between biomarker values and tumor sizes during pre-TE and post-TE initiation period was presented using scatterplots.
(§4) For the biomarker results below, the pre-TE initiation period is defined as 12 months before the index date (initiation of TE). The assessment closest to the index date during the pre-TE period was reported for each biomarker.
(§5) The post-TE initiation period is defined as a period from index date to the earlier of end of treatment with TE or date of chart abstraction. The assessment closest to the date of chart abstraction during the post-TE period was reported for each biomarker.
(§6) The data includes patients with reported biomarker values, units, and laboratory ranges during pre- and post-TE initiation periods. It excludes patients who had different biomarker units or laboratory ranges reported pre- and post-TE initiation.
(§7) The normal range was defined by reported laboratory lower limit of normal and upper limit of normal.
The values in Table 5-1 have been converted to mg/24 hours based on the following conversion rate: […]. The Wilcoxon signed rank test was used to calculate P-values for the mean change in biomarker values pre- and post-TE initiation.
Table 5-4 is based on patients who had complete biomarker assessment results (u5-HIAA: N=22; 5-HT: N=22) in both pre-TE and post-TE initiation periods. Correlation analysis was not conducted for CgA and NT-proBNP due to small sample sizes for CgA (n=15) and NT-proBNP (n=2). Pearson's correlation coefficient was used to assess the correlation between biomarker assessments and tumor sizes and to derive the associated P-values. Values have been converted to mg/24 hours based on the following conversion rate: […].

[3] = Physician assessed outcomes in TELEACE subgroup with worsening tumor status at TE initiation; type: in vivo, human
Excerpt: A follow-up analysis of real-world clinical practice experience with TE was initiated in patients with physician-documented worsening tumor status based on radiological reports. The analysis was directed to the subgroup of patients from the TELEACE study with worsening tumor status at the time of TE initiation. Baseline carcinoid syndrome (CS) symptoms, Eastern Cooperative Oncology Group (ECOG) performance status, and weight were compared after at least six months of TE treatment.
A total of 33 patients (17%) in TELEACE had worsened tumor status at the time TE of initiation. The mean patient age was 60 years, with 58% female and 76% white. The majority of these patients had intermediate grade tumor (67%). Prior to TE initiation, 61% had received SSA treatment, and 33% had received other NET treatment, which included liver-directed therapy, surgery, chemotherapy, targeted therapy, and Peptide Receptor Radionuclide Therapy (PRRT). The average duration of TE treatment was 14±10.5 months. […] Additionally, a majority of patients had significant improvement/remained stable in CS symptoms, ECOG performance status, and weight after TE initiation (Table 6).

[4] = test system: CgA; assay: Biomarker changes after TE initiation (TELEACE): CgA; type: in vivo, human; details: n=15
Protocol: as §1, §2, §3, §4, §5, §6, §7
McNemar's test could not be performed because all patients had CgA value above normal range pre-TE initiation.

[5] = test system: human intrahepatic CCA cells CCLP-1; assay: Animal survival in CCLP-1 peritoneal dissemination model; type: in vivo, NOD/SCID mice; details: two weeks therapy: gemcitabine 50 mg/kg 2×wk, cisplatin 2.5 mg/kg 2×wk, nab-paclitaxel 5 mg/kg 2×wk, telotristat ethyl 100 mg/kg 5×wk, controls 47 days
Protocol: The human intrahepatic CCA cells CCLP-1 were cultured in DMEM containing 10% FBS. Animal survival was studied in a peritoneal dissemination model, and a tumor growth study was performed in subcutaneous xenografts using 4-6 weeks old female NOD/SCID mice by injecting 10×10^6 CCLP-1 cells per mouse. Ten days after tumor cell injection, mice were randomized (n=4-7) to receive PBS (control), gemcitabine (50 mg/kg, 2×wk), cisplatin (2.5 mg/kg, 2×wk survival study, 1×wk tumor growth study), nab-paclitaxel (5 mg/kg, 2×wk) or telotristat ethyl (100 mg/kg, 5×wk), for two weeks. In the survival study, mice were monitored daily and euthanized when moribund, and survival was measured from the first day of treatment until death. In the tumor growth study, tumor size was measured twice per week and tumor volume was measured using the formula V=½ (L×W2, with L=length and W=width). Comparative statistics utilized one-way ANOVA, Student's t-test and logrank methods.

In the case of `CCOC(=O)[C@@H](N)Cc1ccc(-c2cc(O[C@H](c3ccc(Cl)cc3-n3ccc(C)n3)C(F)(F)F)nc(N)n2)cc1` [telotristat ethyl, (S)-ethyl 2-amino-3-(4-(2-amino-6-((R)-1-(4-chloro-2-(3-methyl-1H-pyrazol-1-yl)phenyl)-2,2,2-trifluoroethoxy)pyrimidin-4-yl)phenyl)propanoate], the cell confluence [1] was “minimally impacted”, the “u5-HIAA Below normal range Post-TE, n (%)” value ([2]; pre-TE 0 (0)) was 0 (0) n (%) and the “u5-HIAA At normal range Post-TE, n (%)” value ([2]; pre-TE 1 (4.5)) was 2 (9.1) n (%). For the same compound, the “u5-HIAA Above normal range Post-TE, n (%)” value ([2]; pre-TE 21 (95.5), P=0.317) was 20 (90.9) n (%), the “u5-HIAA Measurement (mg/24 hours) Post-TE Initiation, Median (IQR)” value ([2]; pre-TE 42.0 (25.0, 65.0)) was 25.0 (16.0, 44.0) mg/24 hours and the “u5-HIAA Measurement (mg/24 hours) Post-TE Initiation, Mean ± SD” value ([2]; pre-TE 72.5 ± 98.0, P<0.001) was 43.6 ± 54.7 mg/24 hours. The “Diarrhea: Improved” value ([3]; 33 patients with worsened tumor status at TE initiation, n = 26, P<0.001) was 88%, the “CS symptoms compared to baseline measures” value ([3]; 33 patients with worsened tumor status, TE treatment 14±10.5 months) was “each patient experienced improvement in at least one CS symptom” and the “Nausea: Remained the Same” value ([3]; worsened tumor status subgroup, n = 4) was 20%. The “Nausea: Improved” value ([3]; worsened tumor status subgroup, n = 4, P=0.432) was 80%, the “Abdominal pain: Remained the Same” value ([3]; worsened tumor status subgroup, n = 8) was 11% and the “Abdominal pain: Improved” value ([3]; worsened tumor status subgroup, n = 8, P=0.020) was 89%. For the same compound, the “Flushing: Remained the Same” value ([3]; worsened tumor status subgroup, n = 14) was 18%, the “Flushing: Improved” value ([3]; worsened tumor status subgroup, n = 14, P=0.008) was 82% and the “Diarrhea: Remained the Same” value ([3]; worsened tumor status subgroup, n = 26) was 12%. For the same compound, the “Weight: Remained the Same” value ([3]; worsened tumor status subgroup, n = 31) was 55%, the “Weight: Improved” value ([3]; worsened tumor status subgroup, n = 31, P=0.017) was 32% and the “ECOG score: Remained the Same” value ([3]; worsened tumor status subgroup, n = 33) was 73%. The “ECOG score: Improved” value ([3]; worsened tumor status subgroup, n = 33, P<0.001) was 24%, the “patients with CgA above normal range pre-TE who had normal CgA value post-TE initiation” value [4] was about 30% and the “CgA At normal range Post-TE, n (%)” value ([4]; pre-TE 0 (0)) was 4 (26.7) n (%). For the same compound, the “CgA Below normal range Post-TE, n (%)” value ([4]; pre-TE 0 (0)) was 0 (0) n (%), the “CgA Above normal range Post-TE, n (%)” value ([4]; pre-TE 15 (100.0)) was 11 (73.3) n (%) and the animal survival [5] was 52 days.
